Laboratory results from patent US20240124483A1, “Methods for the Treatment of Fibrotic Disease” (SHY Therapeutics, LLC, priority 2021, published 2024).
Read-outs that look alike come from different tables or passages of the source.

How the values were obtained:
Smad2/3 phosphorylation = experiment: Phospho-Smad2/3 Inhibition Assay in Panc-1 (western blot); type: cell-based; details: Homo sapiens; 10 μM, 3 hours; PANC-1 stimulated with 10 ng/ml TGF-b1 for 1 hour; read-out: % inh of Smad2/3 phosphorylation in PANC-1
Method: Cell lines: Human tumor-derived pancreatic cancer cell line Panc-1 and mouse muscle myoblast C2C12 were purchased from American Type Culture Collection and grown in complete DMEM-High Glucose, supplemented with penicillin (100 U/mL), streptomycin (100 μg/mL), and 10% heat-inactivated FBS at 37° C. in a humidified incubator with 5% CO2.
Method: Cells were plated at 350000 cells/well density in a 12-well plate, allowed 3 hours to adhere to the plate, then starved in the appropriate medium in the presence of 0.5% FBS overnight. The small molecules to be tested were added to the cells in the final concentration of 10 μM in the presence of 0.3% DMSO for 3 hours incubation at 37° C. For IC50 value determination, serial dilutions of compounds were added to cells under the same conditions. Next, Panc-1 cells were stimulated with 10 ng/ml TGF-b1 for 1 hour, and C2C12 cells were stimulated with 10 ng/ml TGF-b1 for 20 minutes (recombinant human TGF-b1, R&D Systems). After stimulation cells were lysed with lysis buffer containing 1% Triton X-100, EDTA, and Halt™ Protease & Phosphatase Inhibitor Cocktail (Thermo Scientific). Protein concentration was assessed by BCA protein assay (Thermo Scientific). Phosphorylation level of Smad2/Smad3 was determined by western blot.
Western blot protocol: Equal amounts of protein (15-50 μg) were separated by SDS-PAGE and transferred to nitrocellulose membranes (Invitrogen by Thermo Fisher Scientific). The membrane was stained with Ponceau S Stain (Boston BioProducts) to verify uniform protein loading. Membranes were blocked with 10% milk and phosphorylation levels of Smad2/Smad3 were assessed by incubating overnight at 4° C. with the following antibodies: Phospho-Smad2 (Ser465/467) and Phosph-Smad3 (Ser423/425), both from Cell Signaling Technology. Then the membranes were incubated with HRP-conjugated secondary antibody (Jackson Immunoresearch, West Grove, PA). Bands were incubated in Amersham ECL Prime Western Blotting Detection Reagent (GE Healthcare) and visualized using the ChemiDoc MP imaging system (Bio-Rad).

KRas G12D mutant = KRas G12D mutant (Homo sapiens (Human), UniProt P01116, G12D); experiment: Ras GTP Binding Domain Inhibition Assay, KRas G12D mutant; details: for inhibition at 20 µM: Table 7; for KRas G12D mutant + SOS: % inh. / KRas G12D mutant: % inh.: 20 uM, Table 8
Method: (§1) A Ras Superfamily Activity Assay (as disclosed in International Application No. PCT/US2018/038613, filed Jun. 20, 2018, which is incorporated by reference in its entirety) was used as a specific assay to evaluate compounds against the following for the following Ras Superfamily proteins: KRas wild type, KRas Q61H mutant, KRas G12C mutant, KRas G12D mutant, Rac-1, and Rho-A.
(§2) Buffer-I: • 25 mM Tris-HCl, pH 7.4 • 27 mM KCl • 137 mM NaCl • 1 mM MgCl2 • 1 mM DTT
(§3) Buffer-II: • 50 mM Tris-HCl, pH 7.0 • 1 mM MgCl2 • 1 mM DTT
(§4) The small GTPases proteins: KRas wild type. KRas Q61H mutant, KRas G12C mutant, KRas G12D mutants, Rac-1, and Rho-A were expressed as His-tagged proteins. In addition, the Guanosine nucleotide Exchange Factor (GEF) Sos protein (residues 556-1049) was expressed as a His-tagged protein. In cells, the guanine nucleotide exchange factor Sos protein promotes activation of Ras proteins by stimulating an exchange of GDP for GTP. The inclusion of Sos to the Ras GTP binding domain inhibition assay may be considered as an alternative representation of physiological cellular conditions for evaluating the inhibitory activity of some of the tested small molecules.
(§5) For the assay, all purified small GTPases proteins were diluted in Buffer-I or Buffer-II to a final concentration of 10-30 μg/mL. 200 μL of each diluted protein was added to a nickel-coated 96-well plate and incubated overnight at 4° C. Then the protein solution was discarded and 200 μL of Buffer-I or Buffer-II was added to each well in the presence of 1% DMSO. Compounds to be tested were added to the protein-coated wells at final concentration of 20 μM, and incubated for 3 hours at room temperature with and without 10-30 μg/mL of Sos added to the final hour of the incubation. When performing IC50 measurements a serial dilution of all tested concentrations was added. Then Cy3-GTP or Cy5-GTP was added to each well to a final concentration of 100 nM. The labeled GTP was incubated for 45 minutes at room temperature. Following GTP incubation, wells were washed 3× in Buffer-I or Buffer-II and 200 μL of Buffer-I or Buffer-II was added to each well. Following washes, the amount of bound labeled-GTP was measured using a SpectraMax M3 (Molecular Devices).

KRas G12C mutant = KRas G12C mutant (Homo sapiens (Human), UniProt P01116, G12C); experiment: Ras GTP Binding Domain Inhibition Assay, KRas G12C mutant
Method: as §1, §2, §3, §4, §5

Rac-1 = Rac-1 (Homo sapiens (Human), UniProt P63000); experiment: Ras GTP Binding Domain Inhibition Assay, Rac-1
Method: as §1, §2, §3, §4, §5

Rho-A = Rho-A (Homo sapiens (Human), UniProt P61586); experiment: Ras GTP Binding Domain Inhibition Assay, Rho-A
Method: as §1, §2, §3, §4, §5

[1] = + SOS, read-out: KRas G12D mutant + SOS: % inh.
[2] = without SOS, read-out: KRas G12D mutant: % inh.
[3] = + SOS, read-out: KRas G12C mutant + SOS: % inh.
[4] = without SOS, read-out: KRas G12C mutant: % inh.
[5] = without SOS, read-out: Rac-1: % inh.
[6] = without SOS, read-out: Rho-A: % inh.

Chain of Rho-A (P61586 whole entry, species assumed, the tested form may be a part): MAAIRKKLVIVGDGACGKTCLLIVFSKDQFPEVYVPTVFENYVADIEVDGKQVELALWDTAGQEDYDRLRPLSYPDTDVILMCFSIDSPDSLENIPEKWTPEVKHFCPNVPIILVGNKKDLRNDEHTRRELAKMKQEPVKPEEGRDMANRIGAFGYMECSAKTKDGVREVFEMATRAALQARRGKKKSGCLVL
Chain of KRas G12D mutant (P01116 other isoform, or with tags, fused parts or gaps G12D): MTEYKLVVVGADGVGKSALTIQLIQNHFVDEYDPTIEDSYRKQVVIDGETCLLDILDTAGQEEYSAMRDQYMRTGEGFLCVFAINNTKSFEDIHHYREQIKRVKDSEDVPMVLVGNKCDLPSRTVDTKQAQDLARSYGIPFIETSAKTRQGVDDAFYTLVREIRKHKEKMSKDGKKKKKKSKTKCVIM
Chain of KRas G12C mutant (P01116 other isoform, or with tags, fused parts or gaps G12C): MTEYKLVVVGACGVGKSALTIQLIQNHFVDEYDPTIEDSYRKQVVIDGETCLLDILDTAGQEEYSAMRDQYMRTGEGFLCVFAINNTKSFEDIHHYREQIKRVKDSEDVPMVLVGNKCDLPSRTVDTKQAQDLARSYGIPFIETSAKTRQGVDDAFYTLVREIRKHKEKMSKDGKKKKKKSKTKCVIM

Row | Structure (SMILES) | inhibition at 20 µM (KRas G12D mutant; [1]) | KRas G12D mutant + SOS: % inh. (KRas G12D mutant; + SOS) | inhibition at 20 µM (KRas G12D mutant; [2]) | KRas G12D mutant: % inh. (KRas G12D mutant; without SOS) | inhibition at 20 µM (KRas G12C mutant; [3]) | inhibition at 20 µM (KRas G12C mutant; [4]) | inhibition at 20 µM (Rac-1; [5]) | inhibition at 20 µM (Rho-A; [6]) | inhibition at 20 µM (Rac-1; + SOS, read-out: Rac-1 + SOS: % inh.) | inhibition at 20 µM (Rho-A; + SOS, read-out: Rho-A + SOS: % inh.) | inhibition at 10 µM (Smad2/3 phosphorylation)
1 | COCCn1ccc(-c2sc3nc(-c4nccn4C)nc(NC[C@H]4CC[C@H]4COC)c3c2C)n1 (racemic) [Compound 38, rac-6-(1-(2-Methoxyethyl)-1H-pyrazol-3-yl)-N-(((1S,2R)-2-(methoxymethyl)cyclobutyl)methyl)-5-methyl-2-(1-methyl-1H-imidazol-2-yl)thieno[2,3-d]pyrimidin-4-amine] | 76 to 100% | D (D = 76-100% inhibition) | 26 to 45% | B (B = 26-45% inhibition) | 76 to 100% | 46 to 75% | 1 to 25% | 26 to 45% | – | – | 46 to 75%
2 | COCCn1ccc(-c2sc3nc(-c4nccn4C)nc(N[C@@H]4CC[C@H](OC)C4)c3c2C)n1 (racemic) [Compound 39, rac-N-((1R,3S)-3-Methoxycyclopentyl)-6-(1-(2-methoxyethyl)-1H-pyrazol-3-yl)-5-methyl-2-(1-methyl-1H-imidazol-2-yl)thieno[2,3-d]pyrimidin-4-amine] | 76 to 100% | D (D = 76-100% inhibition) | 46 to 75% | C (C = 46-75% inhibition) | 76 to 100% | 76 to 100% | 26 to 45% | 46 to 75% | – | – | 0%
3 | COc1cccc(-c2sc3nc(-c4nccn4C)nc(N[C@@H]4CC[C@@H](OC)C4)c3c2C)c1F (racemic) [Compound 43, rac-6-(2-Fluoro-3-methoxyphenyl)-N-((1R,3R)-3-methoxycyclopentyl)-5-methyl-2-(1-methyl-1H-imidazol-2-yl)thieno[2,3-d]pyrimidin-4-amine] | 76 to 100% | D (D = 76-100% inhibition) | 1 to 25% | A (A = 1-25% inhibition) | 76 to 100% | 26 to 45% | 1 to 25% | 26 to 45% | – | – | 76 to 100%
4 | CO[C@@H]1CC[C@H](Nc2nc(-c3nccn3C)nc3sc(-c4ccn(C(C)C)n4)c(-c4ccccc4)c23)C1 (single isomer, unassigned) [Compound 11] | 46 to 75% | C (C = 46-75% inhibition) | 46 to 75% | C (C = 46-75% inhibition) | 76 to 100% | 46 to 75% | 1 to 25% | 26 to 45% | 26 to 45% | 26 to 45% | 46 to 75%
5 | COCCN(C)c1nc(-c2nccn2C)nc2sc(-c3ccccc3)c(-c3ccccc3)c12 [Compound 2, N-(2-Methoxyethyl)-N-methyl-2-(1-methyl-1H-imidazol-2-yl)-5,6-diphenylthieno[2,3-d]pyrimidin-4-amine] | – | – | 46 to 75% | C (C = 46-75% inhibition) | – | 26 to 45% | 26 to 45% | 26 to 45% | – | – | 0%

Second part, led by results:

Row | inhibition at 20 µM (KRas G12D mutant; [1]) | KRas G12D mutant + SOS: % inh. (KRas G12D mutant; + SOS) | inhibition at 20 µM (KRas G12D mutant; [2]) | KRas G12D mutant: % inh. (KRas G12D mutant; without SOS) | inhibition at 20 µM (KRas G12C mutant; [3]) | inhibition at 20 µM (KRas G12C mutant; [4]) | inhibition at 20 µM (Rac-1; [5]) | inhibition at 20 µM (Rho-A; [6]) | inhibition at 20 µM (Rac-1; + SOS, read-out: Rac-1 + SOS: % inh.) | inhibition at 20 µM (Rho-A; + SOS, read-out: Rho-A + SOS: % inh.) | Structure (SMILES) | inhibition at 10 µM (Smad2/3 phosphorylation)
6 | 76 to 100% | D (D = 76-100% inhibition) | 46 to 75% | C (C = 46-75% inhibition) | 76 to 100% | 76 to 100% | 1 to 25% | 46 to 75% | – | – | COCC1(OC)CCN(c2nc(-c3nccn3C)nc3sc(-c4ccn(C(C)C)n4)c(C)c23)C1 (racemic) [Compound 27, rac-6-(1-Isopropyl-1H-pyrazol-3-yl)-4-(3-methoxy-3-(methoxymethyl)pyrrolidin-1-yl)-5-methyl-2-(1-methyl-1H-imidazol-2-yl)thieno[2,3-d]pyrimidine] | 0%
7 | 46 to 75% | C (C = 46-75% inhibition) | 1 to 25% | A (A = 1-25% inhibition) | 76 to 100% | 26 to 45% | 1 to 25% | 0% | – | – | COc1cccc(-c2sc3nc(-c4nccn4C)nc(N[C@@H]4CC[C@@H](OC)C4)c3c2-c2ccccc2)c1F (racemic) [Compound 41, 6-(2-Fluoro-3-methoxyphenyl)-N-((1R,3R)-3-methoxycyclopentyl)-2-(1-methyl-1H-imidazol-2-yl)-5-phenylthieno[2,3-d]pyrimidin-4-amine] | 76 to 100%
8 | 46 to 75% | C (C = 46-75% inhibition) | 76 to 100% | D (D = 76-100% inhibition) | 76 to 100% | 26 to 45% | 0% | 0% | – | – | COc1cc(-c2sc3nc(-c4nccn4C)nc(N[C@@H]4CC[C@H](OC)C4)c3c2-c2ccccc2)ccn1 (racemic) [Compound 44, rac-N-((1R,3S)-3-Methoxycyclopentyl)-6-(2-methoxypyridin-4-yl)-2-(1-methyl-1H-imidazol-2-yl)-5-phenylthieno[2,3-d]pyrimidin-4-amine] | 76 to 100%
9 | 76 to 100% | D (D = 76-100% inhibition) | 46 to 75% | C (C = 46-75% inhibition) | 76 to 100% | 46 to 75% | 46 to 75% | 46 to 75% | – | – | COc1cc(-c2sc3nc(-c4nccn4C)nc(N[C@@H]4CC[C@@H](OC)C4)c3c2-c2ccccc2)ccn1 (racemic) [Compound 47, N-((1R,3R)-3-Methoxycyclopentyl)-6-(2-methoxypyridin-4-yl)-2-(1-methyl-1H-imidazol-2-yl)-5-phenylthieno[2,3-d]pyrimidin-4-amine] | 76 to 100%
10 | 1 to 25% | A (A = 1-25% inhibition) | 76 to 100% | D (D = 76-100% inhibition) | – | 46 to 75% | 76 to 100% | 46 to 75% | – | – | COCCNc1nc(-c2nccn2C)nc2sc(-c3ccccc3)c(-c3ccccc3)c12 [Compound 1, N-(2-Methoxyethyl)-2-(1-methyl-1H-imidazol-2-yl)-5,6-diphenylthieno[2,3-d]pyrimidin-4-amine] | 46 to 75%
